LC retention time data for 74 compounds are collected here from the RepoRT retention time repository (doi:10.1021/es4044374).

The series is described as follows: RP, Waters XBridge C18, 50 × 2.1 mm, 3.5 µm, 30 °C, 0.2 mL/min, estimated dead time 0.55 min; A: water + 0.1% formic acid, pH 3; B: methanol + 0.1% formic acid, pH 3; gradient (min/%B) 0/10 4/50 17/95 25/95 25.1/10 30/10. The following applies: stereoisomer not certain.
As for `CCCN(CCOc1c(Cl)cc(Cl)cc1Cl)C(=O)n1ccnc1` [Prochloraz], the LC retention time was 12.2 min. Take `COc1nc(NC(C)C)nc(NC(C)C)n1` [Prometon]: the LC retention time is 6.7 min. In the case of `CSc1nc(NC(C)C)nc(NC(C)C)n1` [Prometryn], the LC retention time is 8.5 min. As to `CC(C)N(C(=O)CS(=O)(=O)O)c1ccccc1` [Propachlor ESA], the LC retention time was 5.9 min.

On to `CC(C)N(C(=O)C(=O)O)c1ccccc1` [Propachlor OXA], for which the LC retention time was 5.6 min. As to `CC(C)N(C(=O)CCl)c1ccccc1` [Propachlor], the LC retention time was 8.6 min.

In the case of `CCCOC(=O)NCCCN(C)C` [Propamocarb], the LC retention time was 2.4 min. For the compound `CC(C)=NOCCOC(=O)C(C)Oc1ccc(Oc2cnc3cc(Cl)ccc3n2)cc1` (centres undefined) [Propaquizafop], the LC retention time was 15 min. To `CC(C)Nc1nc(Cl)nc(NC(C)C)n1` [Propazine] belongs 9.9 min; to `CCCC1COC(Cn2cncn2)(c2ccc(Cl)cc2Cl)O1` (centres undefined) [Propiconazole], 13.1 min. In the case of `CC(C)NCC(O)COc1cccc2ccccc12` (centres undefined) [Propranolol] it was 6.6 min; in that of `CCCN(CCC)C(=O)SCc1ccccc1` [Prosulfocarb], 14.4 min; in that of `CC1=NNC(=O)N(N=Cc2cccnc2)C1` [Pymetrozine], 1.5 min. As to `COC(=O)N(OC)c1ccccc1COc1ccn(-c2ccc(Cl)cc2)n1` [Pyraclostrobin], the LC retention time was 13.4 min.

With `Cc1cc(C)nc(Nc2ccccc2)n1` [Pyrimethanil], the LC retention time was 7.6 min. `Cc1cc(=O)[nH]c(C(C)C)n1` [Pyrimidinol]: the LC retention time was 3.4 min. As for `CNC(=C[N+](=O)[O-])NCCSCc1ccc(C[N+](C)(C)[O-])o1` [Ranitidine N-oxide], the LC retention time was 2.4 min. For the compound `CNC(=C[N+](=O)[O-])NCCS(=O)Cc1ccc(CN(C)C)o1` (centres undefined) [Ranitidine-S-oxide], the LC retention time was 0.8 min. As for `CNC(=C[N+](=O)[O-])NCCSCc1ccc(CN(C)C)o1` [Ranitidine], the LC retention time was 1.9 min. `COC(=O)C1C2CC3c4[nH]c5cc(OC)ccc5c4CCN3CC2CC(OC(=O)c2cc(OC)c(OC)c(OC)c2)C1OC` (centres undefined) [Reserpine]: the LC retention time was 8.3 min. Consider `CCS(=O)(=O)c1cccnc1S(=O)(=O)NC(=O)Nc1nc(OC)cc(OC)n1` [Rimsulfuron], for which the LC retention time is 7.9 min. For the compound `O=C(O)C(c1ccccc1)C1CCCCN1` (centres undefined) [Ritalinic acid], the LC retention time is 4.7 min. On to `CC(C)c1nc(CN(C)C(=O)NC(C(=O)NC(Cc2ccccc2)CC(O)C(Cc2ccccc2)NC(=O)OCc2cncs2)C(C)C)cs1` (centres undefined) [Ritonavir], for which the LC retention time is 13.6 min.

`CC(C)c1nc(N(C)S(C)(=O)=O)nc(-c2ccc(F)cc2)c1C=CC(O)CC(O)CC(=O)O` (centres undefined) [Rosuvastatin]: the LC retention time was 9.2 min.

In the case of `CCC1OC(=O)C(C)C(OC2CC(C)(OC)C(O)C(C)O2)C(C)C(OC2OC(C)CC(N(C)C)C2O)C(C)(O)CC(C)C(=NOCOCCOC)C(C)C(O)C1(C)O` (centres undefined) [Roxithromycin], the LC retention time was 10.1 min. Take `O=C1NS(=O)(=O)c2ccccc21` [Saccharin]: the LC retention time was 2.5 min. In the case of `CCNc1nc(Cl)nc(NC(C)CC)n1` (centres undefined) [Sebuthylazine] it was 9.8 min. In the case of `CCNc1nc(NC(C)CC)nc(OC)n1` (centres undefined) [Secbumeton], the LC retention time was 6.7 min. In the case of `CCNc1nc(NCC)[nH]c(=O)n1` [Simazine-2-hydroxy], the LC retention time was 3.5 min. To `CCNc1nc(Cl)nc(NCC)n1` [Simazine] belongs 6.9 min; to `CCNc1nc(NCC)nc(OC)n1` [Simeton], 4.9 min. To `CCC(C)(C)C(=O)OC1CC(C)C=C2C=CC(C)C(CCC3CC(O)CC(=O)O3)C21` (centres undefined) [Simvastatin] belongs 16 min; to `NC(CC(=O)N1CCn2c(nnc2C(F)(F)F)C1)Cc1cc(F)c(F)cc1F` (centres undefined) [Sitagliptin], 5.2 min. As to `CC(C)NCC(O)c1ccc(NS(C)(=O)=O)cc1` (centres undefined) [Sotalol], the LC retention time is 1.6 min. Take `CC(=O)SC1CC2=CC(=O)CCC2(C)C2CCC3(C)C(CCC34CCC(=O)O4)C12` (centres undefined) [Spironolactone]: the LC retention time was 10.2 min. For `CCCN(CC)CC1COC2(CCC(C(C)(C)C)CC2)O1` (centres undefined) [Spiroxamine], the LC retention time is 10.1 min. In the case of `OCC1OC(OC2(CCl)OC(CCl)C(O)C2O)C(O)C(O)C1Cl` (centres undefined) [Sucralose], the LC retention time is 4.4 min. In the case of `CS(=O)(=O)c1ccc(C(=O)C2C(=O)CCCC2=O)c(Cl)c1` [Sulcotrione], the LC retention time was 6.8 min. For `Nc1ccc(S(=O)(=O)Nc2ncccn2)cc1` [Sulfadiazine], the LC retention time was 2.2 min. In the case of `COc1cc(NS(=O)(=O)c2ccc(N)cc2)nc(OC)n1` [Sulfadimethoxine] it was 5.7 min.

In the case of `Cc1cc(C)nc(NS(=O)(=O)c2ccc(N)cc2)n1` [Sulfamethazine], the LC retention time was 3.9 min. In the case of `Cc1cc(NS(=O)(=O)c2ccc(N)cc2)no1` [Sulfamethoxazole] it was 4.6 min; in that of `Nc1ccc(S(=O)(=O)O)cc1` [Sulfanilic acid], 0.9 min. For the compound `Nc1ccc(S(=O)(=O)Nc2ccccn2)cc1` [Sulfapyridine], the LC retention time is 2.9 min. On to `Nc1ccc(S(=O)(=O)Nc2nccs2)cc1` [Sulfathiazole], for which the LC retention time was 2.8 min. As for `CC(C)(C)C(O)(CCc1ccc(Cl)cc1)Cn1cncn1` (centres undefined) [Tebuconazole], the LC retention time was 12.8 min. For `CCc1ccc(C(=O)NN(C(=O)c2cc(C)cc(C)c2)C(C)(C)C)cc1` [Tebufenozide], the LC retention time was 12.4 min.

For the compound `CC(C)N(Cc1ccccc1)C(=O)C(C)(C)C` [Tebutam], the LC retention time was 11.7 min. In the case of `O=C(NC(=O)c1c(F)cccc1F)Nc1cc(Cl)c(F)c(Cl)c1F` [Teflubenzuron], the LC retention time was 16.1 min. `CCCc1nc2c(C)cc(-c3nc4ccccc4n3C)cc2n1Cc1ccc(-c2ccccc2C(=O)O)cc1` [Telmisartan]: the LC retention time was 9.2 min. In the case of `CCNc1nc(NC(C)(C)C)nc(OC)n1` [Terbumeton], the LC retention time was 6.7 min. With `CCNc1nc(NC(C)(C)C)nc(SC)n1` [Terbutryn], the LC retention time is 8.5 min.

Regarding `CCNc1nc(NC(C)(C)C)[nH]c(=O)n1` [Terbutylazine-2-hydroxy], the LC retention time is 5.6 min.

Consider `CC(C)(C)Nc1nc(N)[nH]c(=O)n1` [Terbutylazine-desethyl-2-hydroxy], for which the LC retention time is 2.9 min. In the case of `CC(C)(C)Nc1nc(N)nc(Cl)n1` [Terbutylazine-desethyl], the LC retention time is 7.6 min.

For the compound `CCNc1nc(Cl)nc(NC(C)(C)C)n1` [Terbutylazine], the LC retention time was 10.1 min. Regarding `NC(=O)N=C1SCCN1Cc1ccc(Cl)nc1` [Thiacloprid-amide], the LC retention time was 4.6 min.

Turning to `N#CN=C1SCCN1Cc1ccc(Cl)nc1` [Thiacloprid], the LC retention time is 5.8 min. On to `CN1COCN(Cc2cnc(Cl)s2)C1=N[N+](=O)[O-]` [Thiamethoxam], for which the LC retention time was 4.1 min. As for `COC(=O)c1sccc1S(=O)(=O)NC(=O)Nc1nc(C)nc(OC)n1` [Thifensulfuron-methyl], the LC retention time is 7.2 min.

Regarding `CCCC(C)C1(CC)C(=O)NC(=S)NC1=O` (centres undefined) [Thiopental], the LC retention time was 9 min. For the compound `COc1cccc(C2(O)CCCCC2CN(C)C)c1` (centres undefined) [Tramadol], the LC retention time was 4.9 min. In the case of `O=C(Nc1ccc(Cl)cc1)Nc1ccc(Cl)c(Cl)c1` [Triclocarban] it was 14.8 min; in that of `O=C(O)COc1nc(Cl)c(Cl)cc1Cl` [Triclopyr], 10.3 min; in that of `CCCN(CCC)c1c([N+](=O)[O-])cc(C(F)(F)F)cc1[N+](=O)[O-]` [Trifluralin], 16.5 min. Regarding `COc1cc(Cc2cnc(N)nc2N)cc(OC)c1OC` [Trimethoprim], the LC retention time is 3.8 min. To `CC(CN(C)C)CN1c2ccccc2CCc2ccccc21` (centres undefined) [Trimipramine] belongs 8.7 min; to `CCOC(=O)C1CC(=O)C(=C(O)C2CC2)C(=O)C1` (centres undefined) [Trinexapac-ethyl], 8.9 min; to `O=C1CC(C(=O)O)CC(=O)C1=C(O)C1CC1` (centres undefined) [Trinexapac], 6.9 min. Take `COc1nc(NC(=O)NS(=O)(=O)c2ccccc2C(F)(F)F)nc(C(F)(F)F)n1` [Tritosulfuron]: the LC retention time was 10.8 min. On to `CCC1OC(=O)CC(O)C(C)C(OC2OC(C)C(OC3CC(C)(O)C(O)C(C)O3)C(N(C)C)C2O)C(CC=O)CC(C)C(=O)C=CC(C)=CC1COC1OC(C)C(O)C(OC)C1OC` (centres undefined) [Tylosin], for which the LC retention time is 8.1 min.

Consider `CCCCC(=O)N(Cc1ccc(-c2ccccc2-c2nn[nH]n2)cc1)C(C(=O)O)C(C)C` (centres undefined) [Valsartan], for which the LC retention time is 11.2 min.

Consider `COc1ccc(C(CN(C)C)C2(O)CCCCC2)cc1` (centres undefined) [Venlafaxine], for which the LC retention time was 6.2 min. For `COc1ccc(CCN(C)CCCC(C#N)(c2ccc(OC)c(OC)c2)C(C)C)cc1OC` (centres undefined) [Verapamil], the LC retention time was 7.3 min.
